What was measured:
[1] = tested on: c-myc (DNA, G4) TGAGGGTGGGGAGGGTGGGGAA; assay: ITC; conditions: K+ (50 mM KH2PO4-K2HPO4); potassium phosphate buffer pH 7.0, 25 °C, dilute condition without PEG200
[2] = tested on: c-myc (DNA, G4) TGAGGGTGGGGAGGGTGGGGAA; assay: CD melting at 263 nm; conditions: 5 mM KCl; 50 mM Tris-HCl pH 7.4; 4.5 μM compound, 1.5 μM DNA
[3] = tested on: Telomere G1 (DNA, G4) TAGGGTTAGGGTTAGGGTTAGGG; assay: ITC; conditions: K+ (50 mM KH2PO4-K2HPO4); potassium phosphate buffer pH 7.0, 25 °C, dilute condition without PEG200
[4] = tested on: Telomere G1 (DNA, G4) TAGGGTTAGGGTTAGGGTTAGGG; assay: CD melting at 288 nm; conditions: 100 mM KCl, 50 mM Tris-HCl pH 7.4, 4.5 μM compound, 1.5 μM DNA

Row | Structure (SMILES) | Ka [1] [M⁻¹] | ΔTm [2] [°C] | Ka [3] [M⁻¹] | ΔTm ([4]; derived from two Tm (73.5, 65)) [°C] | ΔTm ([4]; derived from two Tm (70.5, 65)) [°C] | ΔTm ([4]; derived from two Tm (79, 65)) [°C]
1 | CN1CCCNC(=O)CC2(CCCCC2)CC(=O)NCCCN(C)CCCN2C(=O)c3ccc4c5c(ccc(c35)C2=O)C(=O)N(CCC1)C4=O | 6.2e+06 | > 15 | 1.5e+06 | 8.5 | – | –
2 | CN1CCCNC(=O)CCCC(=O)NCCCN(C)CCCN2C(=O)c3ccc4c5c(ccc(c35)C2=O)C(=O)N(CCC1)C4=O | 1.1e+06 | > 15 | 3.4e+06 | – | 5.5 | –
3 | CN1CCCNC(=O)c2cccc(c2)C(=O)NCCCN(C)CCCN2C(=O)c3ccc4c5c(ccc(c35)C2=O)C(=O)N(CCC1)C4=O | 2.4e+06 | > 15 | 2.2e+06 | – | – | 14

Source: publication PMC7037305 (2020)
